Measured values taken from DBAASP.
In brackets after ≈: the same amount, converted by molar mass.

What was measured:
Assay in all cases: ≥ marks a high value that may be exact or a test limit, other limits are often not marked, values filed in µg/mL are converted to µM
[1] = system: Escherichia coli ATCC 25922
[2] = system: Escherichia coli NEB5alpha
[3] = system: Bacillus subtilis ATCC 6051
[4] = system: Staphylococcus aureus ATCC 43300
[5] = system: Candida albicans ATCC 10231
[6] = system: Salmonella enterica subsp. enterica serovar Enteritidis
[7] = system: Escherichia coli
[8] = system: Staphylococcus aureus ATCC 29213
[9] = system: Salmonella sp.
[10] = system: Cryptococcus neoformans ATCC 32264
[11] = system: Yersinia enterocolitica
[12] = system: Pseudomonas aeruginosa ATCC 27853
[13] = system: Franconibacter helveticus DSM 18396
[14] = system: Bacillus subtilis DSM 347
[15] = system: Kocuria rhizophila DSM 348
[16] = system: Escherichia coli DH5alpha
[17] = system: Staphylococcus aureus ATCC 33591

Structure (SMILES)	MIC [1] [µM]	MIC [2] [µM]	MIC [3] [µM]	MIC [4] [µM]	MIC [5] [µM]	MIC [6] [µM]	MIC [7] [µM]	MIC [8] [µM]	MIC [9] [µM]	MIC [10] [µM]	MIC [11] [µM]	MIC [12] [µM]	other results
CC[C@H](C)[C@H](N)C(=O)N[C@H](C(=O)N[C@@H](CC(C)C)C(=O)N[C@@H](CC(N)=O)C(=O)N1CCC[C@H]1C(=O)N[C@@H](Cc1c[nH]c2ccccc12)C(=O)N[C@@H](CC(=O)O)C(=O)N[C@@H](CCC(N)=O)C(=O)N[C@H](C(=O)N[C@@H](CCCCN)C(=O)O)C(C)C)C(C)C [IVLNPWDQVK]	1360 (≈ 1650 µg/mL)	≥ 681	≥ 1360	–	–	–	–	–	–	–	–	–	–
CC[C@H](C)[C@H](NC(=O)[C@H](CCC(N)=O)NC(=O)[C@@H](N)CCCN=C(N)N)C(=O)N[C@@H](CCCN=C(N)N)C(=O)N[C@@H](CCCN=C(N)N)C(=O)N[C@@H](Cc1c[nH]c2ccccc12)C(=O)N[C@@H](Cc1c[nH]c2ccccc12)C(=O)N[C@@H](CCC(N)=O)C(=O)N[C@@H](CCCN=C(N)N)C(N)=O [RQIRRWWQR]	18.1 (≈ 25 µg/mL)	–	–	18.1 (≈ 25 µg/mL)	10 (≈ 13.8 µg/mL)	18.1 (≈ 25 µg/mL)	9.03 (≈ 12.5 µg/mL)	36.1 (≈ 50 µg/mL)	18.1 (≈ 25 µg/mL)	25 (≈ 34.6 µg/mL)	18.1 (≈ 25 µg/mL)	> 50	–
CC[C@H](C)[C@H](NC(=O)CN)C(=O)NCC(=O)N[C@@H](CCCCN)C(=O)N[C@@H](Cc1ccccc1)C(=O)N[C@@H](C)C(=O)N[C@@H](Cc1cnc[nH]1)C(=O)N[C@@H](CO)C(=O)N[C@@H](C)C(=O)N[C@@H](CCCCN)C(=O)N[C@@H](CCCCN)C(=O)N[C@@H](Cc1ccccc1)C(=O)NCC(=O)N[C@@H](CCCCN)C(=O)N[C@@H](C)C(=O)N[C@@H](Cc1ccccc1)C(=O)N[C@H](C(=O)NCC(=O)N[C@@H](CCC(=O)O)C(=O)N[C@H](C(=O)N[C@@H](CCSC)C(=O)N[C@@H](CC(N)=O)C(=O)N[C@@H](CO)C(=O)O)[C@@H](C)CC)C(C)C [GIGKFAHSAKKFGKAFVGEIMNS]	–	–	–	–	–	–	–	–	–	–	–	–	MIC [13]: ≥ 128 µM; MIC [14]: ≥ 32 µM; MIC [15]: ≥ 256 µM; MIC [16]: ≥ 128 µM
CC[C@H](C)[C@H](NC(=O)[C@H](CCCNC(=N)N)NC(=O)[C@@H](NC(=O)[C@H](CCC(N)=O)NC(=O)[C@@H](N)CCCNC(=N)N)[C@@H](C)CC)C(=O)N[C@@H](Cc1c[nH]c2ccccc12)C(=O)N[C@@H](Cc1ccccc1)C(=O)N[C@@H](CCC(N)=O)C(=O)N[C@@H](CC(N)=O)C(=O)N[C@@H](CCCNC(=N)N)C(=O)N[C@@H](CCCNC(=N)N)C(=O)N[C@@H](CCSC)C(=O)N[C@@H](CCCNC(=N)N)C(=O)N[C@@H](Cc1c[nH]c2ccccc12)C(=O)N[C@@H](CCCNC(=N)N)C(=O)N[C@@H](CCCNC(=N)N)C(N)=O [RQIRIWFQNRRMRWRR]	–	–	–	> 50	100 (≈ 236 µg/mL)	25 (≈ 58.9 µg/mL)	25 (≈ 58.9 µg/mL)	> 50	≥ 50	≥ 50	≥ 50	> 50	MIC [17]: 16 µM (≈ 37.7 µg/mL)
CC[C@H](C)[C@H](NC(=O)[C@H](C)NC(=O)CNC(=O)[C@H](CCCCN)NC(=O)[C@H](CCC(=O)O)NC(=O)[C@H](CCC(=O)O)NC(=O)[C@H](CC(=O)O)NC(=O)[C@H](CCC(=O)O)NC(=O)[C@H](CC(=O)O)NC(=O)[C@H](CCCN=C(N)N)NC(=O)CNC(=O)[C@H](CCC(N)=O)NC(=O)[C@H](CC(C)C)NC(=O)[C@H](CCCCN)NC(=O)[C@H](CC(=O)O)NC(=O)[C@@H](NC(=O)[C@@H](NC(=O)[C@H](Cc1cnc[nH]1)NC(=O)[C@@H](N)CCCN=C(N)N)[C@@H](C)CC)C(C)C)C(=O)N[C@H](C(=O)N[C@@H](CCCCN)C(=O)N[C@H](C(=O)N[C@@H](CCCCN)C(=O)NCC(=O)NCC(=O)N[C@@H](CC(C)C)C(=O)O)C(C)C)C(C)C [RHIVDKLQGRDEDEEKGAIVKVKGGL]	–	≥ 500	≥ 500	–	–	–	–	–	–	–	–	–	–
